The values that follow come from patent US12048680B2, “Use of Gemfibrozil and derivative thereof for treatment and/or prevention of neurodegenerative disease” (Kunming Institute of Zoology Chinese Academy of Sciences, priority 2018, dated 2024).

The test system of one assay is hippocampal neurons. The assay is described as follows: Golgi staining, dendritic spine density in mouse brain neurons. Format: in vivo. The settings on record: hippocampal neurons of APP/PS1ΔE9 mice treated for 2 months (C-D in FIG. 3). The protocol:
(§1) Gemfibrozil was administered to 8-month-old APP/PS1ΔE9 mice (male and female halves). Gemfibrozil was first dissolved in dimethyl sulfoxide (DMSO) at a concentration of 50 mg/mL, and then diluted to a final concentration of 50 μg/mL with mouse drinking water to obtain a drug solution. The mice in the administration group were allowed to freely drink the drug solution containing gemfibrozil, in which the final concentration of DMSO in the solution was 0.1%; and the mice in the control group were allowed to drink water containing 0.1% DMSO freely. All drinking devices contained with Gemfibrozil were wrapped in aluminum foil to prevent decomposition by exposure. During dosing, the drug solution was replaced every 2 days. Mice were measured daily for water consumption. After 2 months of dosing, all mice were subjected to behavioural experiments. Mice were placed in the laboratory to be behaviourally tested one hour prior to the start of daily behavioural studies, and all behavioural experiments were completed between 9 and 17 o'clock. All experiments involving animals were approved by Animal Ethics Committee of the Kunming Institute of Zoology, CAS. 7. […]

The next assay has as its system APP/PS1ΔE9 mice. Put plainly: Open field experiment (anxiety symptoms). It counts as in vivo, mouse. The settings on record: 2 months of administration. The protocol:
as §1, with “We evaluated the anxiety symptom behavior of APP/PS1ΔE9 mice 2 months after administration of Gemfibrozil using an open field experiment.” for “7.”

The subject of the next assay is PSD-95 protein. Put plainly: Immunohistochemical staining of mouse brain tissue for PSD-95. It counts as in vivo. The settings on record: hippocampus of APP/PS1ΔE9 mice treated for 2 months (A-B in FIG. 3).
A further assay concerns insoluble Aβ. The assay is described as follows: ELISA of insoluble Aβ in mouse brain tissue. It counts as in vivo. The settings on record: hippocampus and cortex tissues, vs control group (C in FIG. 4). The protocol: Gemfibrozil was administered to 8-month-old APP/PS1ΔE9 mice (male and female halves). Gemfibrozil was first dissolved in dimethyl sulfoxide (DMSO) at a concentration of 50 mg/mL, and then diluted to a final concentration of 50 μg/mL with mouse drinking water to obtain a drug solution. The mice in the administration group were allowed to freely drink the drug solution containing gemfibrozil, in which the final concentration of DMSO in the solution was 0.1%; and the mice in the control group were allowed to drink water containing 0.1% DMSO freely. All drinking devices contained with Gemfibrozil were wrapped in aluminum foil to prevent decomposition by exposure. During dosing, the drug solution was replaced every 2 days. Mice were measured daily for water consumption. After 2 months of dosing, all mice were subjected to behavioural experiments. Mice were placed in the laboratory to be behaviourally tested one hour prior to the start of daily behavioural studies, and all behavioural experiments were completed between 9 and 17 o'clock. All experiments involving animals were approved by Animal Ethics Committee of the Kunming Institute of Zoology, CAS. 8. Content of insoluble Aβ in mouse brain tissue by ELISA The content of insoluble Aβ in brain tissue was detected by an ELISA kit (Elabscience), and the experiment was performed according to the instructions of the ELISA kit.

For the molecule `Cc1ccc(C)c(OCCCC(C)(C)C(=O)O)c1` [Gemfibrozil, 2,2-dimethyl-5-(2,5-dimethylphenoxy) pentanoic acid], in the assay on hippocampal neurons, the dendritic spine density result was “significantly up-regulated”. Further, in the assay on APP/PS1ΔE9 mice (vs control group), the anxiety symptoms result is recorded as “significantly alleviated”. Moreover, in the assay with APP/PS1ΔE9 mice (vs control group (A, C in FIG. 2)), the “lingering time in the open field central region” value is listed as “significantly increased”. Further, the PSD-95 immunoreactivity result with PSD-95 protein is “significantly up-regulated”. Also, in the assay on insoluble Aβ, the “amount of insoluble Aβ40” value is given as “significantly reduced”; the “amount of insoluble Aβ42” value is recorded as “significantly reduced”; the “ratio of insoluble Aβ42 and Aβ40” value is given as “did not change significantly”.
